Patent publication US12239650B2, “Compounds for treating and preventing net associated complications” (The Australian National University, priority 2019, dated 2025)

How the values were obtained:
histones = assay: Lipid bilayer assay (artificial lipid bilayers exposed to histones); details: for Average bilayer lifetime: histones alone 5.7±1.2, control 46±4; for Incidence of rapid bilayer rupture: within 0.3-0.5 min of histone addition, histones alone 28%
Protocol: Lipid bilayer assays. Artificial lipid bilayers, prepared as previously described (Rebbeck, R. T. et al. The beta(1a) subunit of the skeletal DHPR binds to skeletal RyR1 and activates the channel via its 35-residue C-terminal tail. Biophys J 100, 922-930 (2011).), separated symmetrical 150 mM or 250 mM KCl (pH ˜5.5) solutions. Histones (1 μM, 15.2 μg ml^−1) were added to bilayers alone or after 0.5-3 h incubation with 10 μM CBS (3.5 μg ml^−1) or 10 μM MTS (5.1 μg ml^−1) at ˜20° C. Current was recorded continuously after histone addition until the bilayers broke or the experiment was terminated.

[1] = test system: histone-induced Ca2+ flux by HMEC-1; assay: Calcium flux in endothelial cells (Indo-1 flow cytometry); format: cell-based, human; details: compounds 100 μg ml^−1, histones 100 μg ml^−1, FIG. 5c
Protocol: Calcium flux studies in endothelial cells. HMEC-1 (2×10^7 ml^−1) in RPMI-1640 medium were incubated with Indo-1 AM (5 μM) (ThermoFisher) (Tellam, R. L. & Parish, C. R. The effect of sulfated polysaccharides on the free intracellular calcium ion concentration of lymphocytes. Biochim Biophys Acta 930, 55-64 (1987); and Weston, S. A., Tellam, R. L. & Parish, C. R. Dextran sulfate induces changes in the free intracellular calcium ion concentration of a subpopulation of immature thymocytes. Immunol Cell Biol 69, 369-376 (1991)) at 37° C. for 60 min. After 3 washes with RPMI-1640 medium supplemented with 5% FCS the cells were resuspended at 4×10^6 ml^−1 in ice-chilled HEPES-buffered saline (NaCl 8 g l^−1, KCl 0.4 g l^−1, CaCl2 0.2 g l^−1, MgCl2·6H2O 0.2 g l^−1, D-glucose 1.8 g l^−1, pH 7.4) supplemented with 10 mM HEPES. […] Intracellular Ca^2+ flux was monitored using flow cytometry. […] After the exclusion of cellular debris and clumped cells (on the basis of FSC/SSC light scattering) the basal Ca^2+ level was monitored for 2 min before histone addition in the presence/absence of novel compounds. Ca^2+ levels were measured at 1, 3 and 9 min post-histone addition with a constant flow rate (˜300 events/sec). Ca^2+ flux was determined as an increase in the ratio of geometric mean fluorescence intensity (GMFI) of Ca^2+-bound over Ca^2+-unbound Indo-1.

[2] = Rat cardiac ischemia reperfusion injury model; format: in vivo; details: rats, 30 mg kg^−1 into left ventricle 5 min prior to reperfusion, FIG. 7c
Text: Rat cardiac ischemia reperfusion injury model. The method used is based on a combination of previously published procedures (Takada, Y., Hashimoto, M., Kasahara, J., Aihara, K. & Fukunaga, K. Cytoprotective effect of sodium orthovanadate on ischemia/reperfusion-induced injury in the rat heart involves Akt activation and inhibition of fodrin breakdown and apoptosis. J Pharmacol Exp Ther 311, 1249-1255 (2004); and Hale, S. L., Dae, M. W. & Kloner, R. A. Hypothermia during reperfusion limits ‘no-reflow’ injury in a rabbit model of acute myocardial infarction. Cardiovasc Res 59, 715-722 (2003)). Male Wistar rats were anaesthetized with isofluorane, intubated via tracheostomy and ventilated with a tidal volume of 1 ml 150 g^−1 and a respiratory rate of 65 breaths min^−1. Supplemental oxygen was delivered at a FiO2 of ˜30%. […]
At the conclusion of reperfusion (30 min), Thioflavin S (1 ml 200 g^−1 of body weight) was slowly injected into the lumen of the left ventricle, to define the territory of microvascular obstruction (MVO) within the ischemic zone (IZ). The IZ territory was determined by the re-occlusion of the atraumatic snare and infusion of blue microspheres into the left ventricle (Unisperse Blue, BASF), distributed within solutions via ultrasonication using a CD-6800 (Unisonics) sonicator. […] Planimetry (Image J, Freeware) was used to quantify the areas of the IZ, MVO and necrosis.

[3] = Rat caecal ligation and puncture (CLP) assay for sepsis; format: in vivo; details: for Mortality in CLP model of sepsis: rats n=8/group, 50 mg kg^−1 i.p. 5 min pre-CLP and 5, 10, 15 h post-op, 20 h, FIG. 7a; for High ALT and creatinine levels (liver and kidney damage) in CLP rats: 50 mg kg^−1 i.p., versus untreated group, FIG. 7b
Protocol: Rat caecal ligation and puncture (CLP) assay for sepsis. […] Test compounds (50 mg kg^−1) dissolved in saline or an equivalent volume of saline only (Control cohort) were administered i.p. 5 min pre-CLP and 5, 10 and 15 h post-op until cessation of the experiment at 20 h. Sham-CLP rats underwent the same procedure, however, the caecum was not ligated or punctured and these rats received saline at the same times as above. At the conclusion of the experimental time period (20 h) or when morbidity required ethical euthanasia, the rats were anaesthetized and blood was collected via cardiac puncture into EDTA for subsequent analysis of liver (ALT) and kidney (creatinine) function by the Department of Pathology, The Canberra Hospital.

[4] = test system: histone-induced platelet aggregation; assay: Histone-induced aggregation of isolated platelets; format: cell-based, human; details: FIG. 4b; for Inhibition of histone-induced platelet aggregation: histones 150 μg/mL, isolated platelets
Protocol: In vitro platelet aggregation and degranulation assays. For aggregation studies platelets were isolated from human whole blood collected into Na-citrate vacutainers through 2-step centrifugation at room temperature (200×g for 20 min then the platelet-rich plasma 800×g for 15 min), the platelet pellet resuspended in Hank's balanced salt solution containing calcium and magnesium and histones added and incubated in the presence/absence of compounds at the concentrations of each as indicated. Samples were assessed for degree of platelet aggregation after 15 min exposure to histones by flow cytometry using the characteristic log FSC versus log SSC identification of platelets, with increases in the geometric mean of log FSC indicative of platelet aggregation.

[5] = histones 1 μM with 10 μM compound

Row | Compound | Average bilayer lifetime (histones; [5]) [min] | Incidence of rapid bilayer rupture (histones) [%] | Effect on histone-induced Ca2+ response [1] | Reduction of area of microvascular obstruction and myocardial necrosis in the ischemic zone [2] | Mortality in CLP model of sepsis [3] | High ALT and creatinine levels (liver and kidney damage) in CLP rats [3] | Inhibition of histone-induced platelet aggregation [4] | Bilayer lifetime compared with control lifetimes (histones; [5]) | Relative activity in inhibiting histone-induced platelet aggregation [4]
1 | O=S(=O)(O)OC[C@H]1O[C@@H](O[C@H]2[C@H](OS(=O)(=O)O)[C@@H](OS(=O)(=O)O)C(OS(=O)(=O)O)O[C@@H]2COS(=O)(=O)O)[C@H](OS(=O)(=O)O)[C@@H](OS(=O)(=O)O)[C@@H]1OS(=O)(=O)O (stereo partly shown) [CBS, cellobiose per-O-sulfate] | 18 ± 4 | 5.8 | substantially inhibited | 50% | no mortality | not seen | completely inhibited | – | –
2 | O=S(=O)(O)OC[C@H]1O[C@H](O[C@H]2[C@H](OS(=O)(=O)O)[C@@H](OS(=O)(=O)O)C(OS(=O)(=O)O)O[C@@H]2COS(=O)(=O)O)[C@H](OS(=O)(=O)O)[C@@H](OS(=O)(=O)O)[C@@H]1O[C@H]1O[C@H](COS(=O)(=O)O)[C@@H](OS(=O)(=O)O)[C@H](OS(=O)(=O)O)[C@H]1OS(=O)(=O)O (stereo partly shown) [MTS, maltotriose per-O-sulfate] | 36 ± 5 | 2.5 | totally ablated | totally ineffectual | only one death | only partially reduced | completely inhibited | not significantly different from the control lifetimes | most active
